Test results from article PMC6813295, “A tumour-selective cascade activatable self-detained system for drug delivery and cancer imaging” (Nature Communications, 2019).
Where a SMILES comes first, the peptide text is derived from it. The star is where a group is joined. X1 = CC1(C)C(=CC=C2CCCC(C=CC3=[N+](CCCCCC(=O)O)c4ccccc4C3(C)C)=C2*)N(CCCCCC(=O)O)c2ccccc21

Tests used:
[1] = biological target: T1, recombinant human caspase-3 (Homo sapiens, UniProt P42574); assay: Caspase-3 cleavage (HPLC) and induced self-assembly (TEM) in HEPES buffer; type: biochemical; settings: caspase-3 2 h, substrate-to-enzyme ratio 1 μM/U, HEPES buffer 50 mM pH 7.4, TEM
T1 construct: purchased Sigma-Aldrich Chemical Co
T1 sequence (P42574 29-175 limits assumed): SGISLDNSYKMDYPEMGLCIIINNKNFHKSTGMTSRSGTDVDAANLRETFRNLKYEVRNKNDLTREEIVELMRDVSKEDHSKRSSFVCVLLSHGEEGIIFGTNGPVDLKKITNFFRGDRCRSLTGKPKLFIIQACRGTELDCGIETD
T1 sequence (P42574 176-277 limits assumed): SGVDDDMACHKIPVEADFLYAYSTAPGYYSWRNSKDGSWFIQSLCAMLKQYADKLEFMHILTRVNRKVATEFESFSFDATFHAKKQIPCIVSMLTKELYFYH
Method: (§1) Fig. 2 The structure conformations and self-assembly properties of molecule 1 in aqueous solution. a Illustration of the self-assembly strategy of molecule 1. b CD spectra of molecule 1 and molecule 4 in deionized water at a concentration of 1 μM. c FTIR spectra of molecule 1 in a monomeric state and molecule 4 in a fibrous assembled state. The arrows identify the typical characteristic peaks of the antiparallel β-sheet structure. d TEM image of self-assembled β-sheet nanofibrils of molecule 1 after treatment with caspase-3 (substrate-to-enzyme ratio of 1 μM/U) in HEPES buffer (50 mM, pH 7.4) for 2 h. The manual measurement of the nanofibril diameter is shown in the zoomed image, and the computational simulation result for the length of molecule 4 is inserted. e WAXS and computational simulation results of the β-sheet self-assemblies (molecule 4) identified the β-sheet and laminate spacing of the structures. f The concentration-dependent CD spectra of molecule 4 in the concentration range of 0.5–10 μM. g Time-dependent TEM images of molecule 4 from 10 min to 12 h for monitoring the growth process of the nanofibrous structures. h Temperature-dependent CD intensity changes at 220 nm of molecules 1 and 4 with a heating rate of 1 °C/min and an equilibrium period of 30 s to reveal the self-assembly mechanisms. Scale bar: 100 nm […]

[2] = Self-assembly behaviour in water (CD, TEM); type: physicochemical
Method: as §1
microscopy (UltraVIEW VoX). […]

CC[C@H](C)[C@H](NC(=O)[C@@H]1CCCN1C(=O)[C@@H](NC(=O)[C@H](C)N)C(C)C)C(=O)N[C@@H](C)C(=O)N[C@@H](CCC(N)=O)C(=O)N[C@@H](CCCCN)C(=O)N[C@@H](CC(=O)O)C(=O)N[C@@H](CCC(=O)O)C(=O)N[C@H](C(=O)N[C@@H](CC(=O)O)C(=O)N[C@@H](CCCCN)C(=O)N[C@@H](CC(C)C)C(=O)N[C@H](C(=O)N[C@@H](Cc1ccccc1)C(=O)N[C@@H](Cc1ccccc1)C(=O)N[C@@H](C)C(=O)N[C@@H](CCC(=O)O)C(=O)N[C@@H](CSC1=C(C=CC2=[N+](CCCCCC(=O)O)c3ccccc3C2(C)C)CCCC1=CC=C1N(CCCCCC(=O)O)c2ccccc2C1(C)C)C(=O)NCC(=O)O)C(C)C)C(C)C [molecule 1] (H-AVPIAQKDEVDKLVFFAEC(X1)G-OH)
diameter of nanofibrils after incubation with caspase-3 [1]: approximately 5.8 ± 0.6 nm | secondary structure by CD ([2]; 1 μM in deionized water): random coiled conformation | state in water (dissolved or fibrous structures; TEM, CD) ([2]; deionized water, same conditions, TEM 50 μM, from 1% HFIP, 24 h): well-dissolved
